The values that follow come from patent US20080241215A1, “LOCAL VASCULAR DELIVERY OF PROBUCOL ALONE OR IN COMBINATION WITH SIROLIMUS TO TREAT RESTENOSIS, VULNERABLE PLAQUE, AAA AND STROKE” (priority 2007, published 2008).

Data set [1] can be described thus: Drug concentration in liquid formulations (liquid chromatography). The conditions noted are these: ethanol, Vitamin E TPGS and water formulation, ethanol less than two percent. In kind it is physicochemical.
Description: The concentrations of each constituent were determined by liquid chromatography and are presented as weight by volume figures.
In another exemplary embodiment, the liquid formulation of sirolimus comprises water and ethanol as co-solvents and Vitamin E TPGS as the excipient. The liquid formulation was created utilizing the following process. Two hundred milligrams of sirolimus and two grams of ethanol were added to a pre-weighed twenty milliliter scintillation vial. The vial was vortexed and sonicated until the sirolimus was completely dissolved. Approximately six hundred milligrams of Vitamin E TPGS was then added to the solution of ethanol and sirolimus. The vial was vortexed again until a clear yellowish solution was obtained. Nitrogen gas was then used to reduce the amount of ethanol in the vial to approximately two hundred twenty-nine milligrams. In a separate vial, three hundred milligrams of Vitamin E TPGS was dissolved in eleven milliliters of purified water while undergoing vortexing. The Vitamin E TPGS and water solution was then added to the first vial containing the sirolimus, Vitamin E TPGS and ethanol. The first vial was then vortexed vigorously and continuously for three minutes.
In another exemplary embodiment, a liquid formulation of CCI-779, a sirolimus analog, is prepared utilizing ethanol, Vitamin E TPGS and water. […]
Data set [2] is described as follows: Porcine drug elution PK studies (in vivo release from stent coating). The following applies: for drug remaining in the drug coating: after eight (8) days of implantation, single-layer sirolimus/cilostazol EVA/BMA coating with 100 μg BMA overcoat (FIG. 83).
The subject of data set [3] is human coronary artery smooth muscle cells. Put plainly: Proliferation of cultured human coronary artery smooth muscle cells. In kind it is cell-based. As for the experimental part: The multiple curves represent various concentrations of topotecan ranging from zero to three hundred nanomolar concentrations. […]
Curve 8702 illustrates the percent inhibition for various concentrations. In FIG. 88, the six curves 8802, 8804, 8806, 8808, 8810 and 8812 represent various concentrations of PX867 with various concentrations of sirolimus. […] More specifically, curve 8812 illustrates the percent inhibition for a 240 nM PX-867 concentration. […] This may be compared to curve 8804 which represents a 15 nM PX-867 concentration.

For data set [4], the system named is human coronary artery smooth muscle cell. As to the kind of experiment: MTS cytotoxicity assay. It counts as cell-based. The following applies: concentrations up to 30,000.00 nanomolar. The text has this:
Typically, a control is utilized to determine baseline toxicity.
A general note: Tetrazolium assays rely on reduction of a dye to a coloured formazan, in cell work by metabolically active cells.

A short description of data set [5]: In vitro release kinetics from stent coating. The conditions noted are these: single-layer sirolimus/cilostazol EVA/BMA coating with 100 μg BMA overcoat (FIG. 83). It counts as physicochemical. The text has this:
In the study, the rapamycin and Panzem® are incorporated into different layers of a polymeric coating. In this study, a Bx Velocity stent is coated with a four hundred microgram inner layer and a three hundred microgram outer layer. The inner layer comprises forty-five percent Panzem® and fifty-five percent EVA/BMA (50/50). […] There is no topcoat of just polymer in this study. Curve 7100 illustrates the release kinetics of Panzem® from the coating.
Another critical parameter for the performance of the thrombus resistance of a device coated with cilostazol is the duration of the drug release from the coating. This is of particular significance in the two weeks after device implantation. In the porcine drug elution PK studies of the dual drug eluting coating, both cilostazol and sirolius were slowly released from the coating, resulting in a sustained drug release profile. The purpose of the porcine PK study is to assess the local pharmacokinetics of a drug eluting stent at a given implantation time. Normally three stents are implanted in three different coronary arteries in a pig for a given time point and then retrieved for total drug recovery analysis. […] The stents are extracted and the total amount of drug remaining on the stents is determined by analysis utilizing HPLC (high performance liquid chromatography) for total drug amount. […]

The test system of data set [6] is cell viability. As to the kind of experiment: Cell viability assay. In kind it is cell-based. The source says:
The multiple curves represent various concentrations of topotecan ranging from zero to three hundred nanomolar concentrations.
The multiple curves represent various concentrations of etoposide ranging from zero to eight hundred nanomolar concentrations.

In data set [7] the test system is tumor cell lines. The conditions noted are these: tumor cell lines (Woo et al. 2002); cited from earlier work.

Molecules are shown by their SMILES.

Turning to `CO[C@H]1C[C@@H]2CC[C@@H](C)[C@@](O)(O2)C(=O)C(=O)N2CCCC[C@H]2C(=O)O[C@H]([C@H](C)C[C@@H]2CC[C@@H](OC(=O)C(C)(CO)CO)[C@H](OC)C2)CC(=O)[C@H](C)/C=C(\C)[C@@H](O)[C@@H](OC)C(=O)[C@H](C)C[C@H](C)/C=C/C=C/C=C/1C` [CCI-779], the “concentration in the final solution (HPLC assay)” value in data set [1] is 15000 µg/mL.

As to `Nc1nc(Cl)nc2c1ncn2[C@H]1C[C@H](O)[C@@H](CO)O1` [Cladribine, 2-chlorodeoxyadenosine], the “in vivo elution relative to rapamycin” value in data set [2] (EVA/BMA basecoat with rapamycin and cladribine, 200 μg BMA topcoat, Yorkshire pigs) was “elutes more rapidly than rapamycin”. Besides, the “inhibition of human coronary artery smooth muscle cell proliferation” value in data set [3] (non-synchronized cells, two percent fetal bovine serum) is “completely inhibits”. The “effect on anti-proliferative rapamycin dose response curves” value in data set [3] (non-synchronized cells, two percent fetal bovine serum, cladribine zero to nine hundred nanomolar) is recorded as “potentiate the anti-proliferative activity of rapamycin”.

As for `COC[C@H]1OC(=O)/C(=C\N2CCCC2)C2=C(O)C(=O)C3=C([C@H](OC(C)=O)C[C@]4(C)C(=O)CC[C@@H]34)[C@]21C` [PX-867], in data set [3] (PX867 alone at a concentration of about 10^−6), the “inhibition of coronary artery smooth muscle cell proliferation” value is listed as “one hundred”. For the same compound, the “combination effect with sirolimus on percent inhibition” value in data set [3] (cultured cells, PX-867 15 nM to 240 nM with various sirolimus concentrations) is on record as “strong synergistic effect”.

In the case of `COc1cc2c(cc1O)CC[C@@H]1[C@@H]2CC[C@]2(C)[C@@H](O)CC[C@@H]12` [Panzem®, 2-methoxyestradiol], the “cell survival (MTS assay)” value in data set [4] is reported as “do not reduce human coronary artery smooth muscle cell survival”. Further, the anti-proliferative activity entry in data set [3] (synchronized cells, two percent fetal bovine serum) is “extremely effective inhibitor”. In addition, the “effect on percent inhibition by rapamycin” value in data set [3] (synchronized cells, two percent fetal bovine serum, Panzem zero to 100 micromolar) is “increases the percent of inhibition of rapamycin alone”.

For `O=C1CCc2cc(OCCCCc3nnnn3C3CCCCC3)ccc2N1` [cilostazol, 6[4-(1-cyclohexyl-1H-tetrazol-5-yl)-butoxy]-3,4-dihydro-2-(1H)-quinolinone], the “drug remaining in the drug coating” value in data set [2] is roughly 80%. In addition, the “in vitro drug release” value in data set [5] is roughly 35%.

Take `COc1cc([C@@H]2c3cc4c(cc3[C@@H](O[C@@H]3O[C@@H]5CO[C@@H](C)O[C@H]5[C@H](O)[C@H]3O)[C@H]3COC(=O)[C@H]23)OCO4)cc(OC)c1O` [etoposide]: the “cytotoxicity in cell viability assay” value in data set [6] (concentrations up to ten micromolar) was “non-cytotoxic”. The “effect on anti-proliferative rapamycin dose response curves” value in data set [3] (non-synchronized cells, two percent fetal bovine serum, etoposide zero to eight hundred nanomolar) is reported as “potentiate the anti-proliferative activity of rapamycin”.

As to `COc1c(C)c2c(c(O)c1C/C=C(\C)CCC(=O)O)C(=O)OC2` [mycophenolic acid], in data set [2] (EVA/BMA basecoat with 180 μg rapamycin and 180 μg mycophenolic acid, BMA topcoat 0-200 μg), the “in vivo elution relative to rapamycin” value was “elutes more completely over a shorter duration than the rapamycin”. In addition, the “effect on anti-proliferative rapamycin dose response curve” value in data set [3] (non-synchronized cells, two percent fetal bovine serum, mycophenolic acid zero to one thousand nanomolar) is “potentiates the anti-proliferative activity of rapamycin”.

In the case of `CO[C@H]1C[C@@H]2CC[C@@H](C)[C@@](O)(O2)C(=O)C(=O)N2CCCC[C@H]2C(=O)O[C@H]([C@H](C)C[C@@H]2CC[C@@H](O)[C@H](OC)C2)CC(=O)[C@H](C)/C=C(\C)[C@@H](O)[C@@H](OC)C(=O)[C@H](C)C[C@H](C)/C=C/C=C/C=C/1C` [rapamycin], the “drug remaining in the drug coating” value in data set [2] was roughly 80%.

Take `CC[C@@]1(O)C(=O)OCc2c1cc1n(c2=O)Cc2cc3c(CN(C)C)c(O)ccc3nc2-1` [topotecan]: in data set [6] (concentrations up to one micromolar), the “cytotoxicity in cell viability assay” value was “non-cytotoxic”. Moreover, in data set [3] (synchronized cells, two percent fetal bovine serum, topotecan zero to three hundred nanomolar), the “effect on anti-proliferative rapamycin dose response curves” value is recorded as “potentiate the anti-proliferative activity of rapamycin”.

The term IC50 denotes the point on the concentration scale where inhibition reaches its midpoint. Consider `CC(/C=C/C(=O)NO)=C\[C@@H](C)C(=O)c1ccc(N(C)C)cc1` [trichostatin A], for which the “anti-proliferative IC50's” value in data set [7] is reported as “low nM range”. The “inhibition of human coronary artery smooth muscle cell proliferation” value in data set [3] (in vitro cell culture studies) is “completely inhibit”. Further, in data set [3] (in vitro cell culture studies, read-out: anti-proliferative IC50), the IC50 is roughly 6 nM.
